Laboratory results published in PMC10033419, “Blocking NS3–NS4B interaction inhibits dengue virus in non-human primates” (Nature, 2023).

Tested on: DENV-2 RL strain
Assay: Survival study, lethal DENV challenge with 4G2 antibody
Format: in vivo, AG129 mice
Conditions: 2'CMC

C[C@@]1(O)[C@H](O)[C@@H](CO)O[C@H]1n1ccc(N)nc1=O [2'CMC]
% Survival (d p.i. 0): 100% | % Survival (d p.i. 1): 100% | % Survival (d p.i. 2): 100% | % Survival (d p.i. 3): 100% | % Survival (d p.i. 4): 100% | % Survival (d p.i. 5): 100% | % Survival (d p.i. 6): 100% | % Survival (d p.i. 7): 100% | % Survival (d p.i. 8): 100% | % Survival (d p.i. 9): 100% | % Survival (d p.i. 10): 100% | % Survival (d p.i. 11): 100% | % Survival (d p.i. 12): 100% | % Survival (d p.i. 13): 90% | % Survival (d p.i. 14): 80% | % Survival (d p.i. 15): 80% | % Survival (d p.i. 16): 80% | % Survival (d p.i. 17): 80% | % Survival (d p.i. 18): 60% | % Survival (d p.i. 19): 60% | % Survival (d p.i. 20): 60% | % Survival (d p.i. 21): 60% | % Survival (d p.i. 22): 60% | % Survival (d p.i. 23): 60% | % Survival (d p.i. 24): 50% | % Survival (d p.i. 25 = end of study): 50%
